What follows are compounds tested on phosphorylation of p70S6K (assay: Inhibition of p70S6K phosphorylation, α-screen assay in SH-SY5Y cell). Conditions: mean ± SD (n ≥ 3).
Type: cell-based

Point of comparison: `O=C(Cc1ccccc1)Nc1ncc(N2CCOCC2)s1` [Compound 51, N-(5-Morpholinothiazol-2-yl)-2-phenylacetamide], “Inhibition ratio of p70S6K phosphorylation at 20 μmol/L (%)” value 47.82±3.90%. Against it:
- O=C(Nc1ncc([N+](=O)[O-])s1)c1ccccc1O [Compound 2, tizoxanide, reference compound] — within error, 43.09±2.98%
- CC(=O)Oc1ccccc1C(=O)Nc1nccs1 [Compound 4, 2-Acetyloxy-N-(thiazol-2-yl)benzamide] — lower, 9.98±5.16%
- CC(=O)Oc1ccccc1C(=O)Nc1ncc(C#N)s1 [Compound 5, 2-Acetyloxy-N-(5-cyanothiazol-2-yl)benzamide] — higher, 70.85±3.56%
- COC(=O)c1cnc(NC(=O)c2ccccc2OC(C)=O)s1 [Compound 6, Methyl 2-(2-acetoxybenzamido)thiazole-5-carboxylate] — lower, 32.72±7.87%
- CC(=O)Oc1ccccc1C(=O)Nc1ncc(C(=O)OCc2ccccc2)s1 [Compound 7, Benzyl 2-(2-acetoxybenzamido)thiazole-5-carboxylate] — lower, 18.88±5.27%
- CSc1cnc(NC(=O)c2ccccc2OC(C)=O)s1 [Compound 8, 2-Acetyloxy-N-(5-(methylthio)thiazol-2-yl)benzamide] — within error, 44.74±9.98%
- CC(=O)Oc1ccccc1C(=O)Nc1ncc(S(C)(=O)=O)s1 [Compound 9, 2-Acetyloxy-N-(5-(methylsulfonyl)thiazol-2-yl)benzamide] — lower, 10.67±10.51%
- CC(=O)Oc1ccccc1C(=O)Nc1ncc(C(=O)O)s1 [Compound 10, 2-(2-Acetoxybenzamido)thiazole-5-carboxylic acid] — lower, −4.51±19.40%
- CC(=O)Oc1ccccc1C(=O)Nc1ncc(N2CCCCC2)s1 [Compound 11, 2-Acetyloxy-N-(5-(piperidin-1-yl)thiazol-2-yl)benzamide] — within error, 56.27±4.61%
- CC(=O)Oc1ccccc1C(=O)Nc1ncc(-n2cccc2)s1 [Compound 13, 2-Acetyloxy-N-(5-(1H-pyrrol-1-yl)thiazol-2-yl)benzamide] — higher, 69.85±0.53%
- CC(=O)Oc1ccccc1C(=O)Nc1ncc(N2CCNCC2)s1 [Compound 14, 2-Acetyloxy-N-(5-(piperazin-1-yl)thiazol-2-yl)benzamide] — lower, 28.21±6.44%
- O=C(Nc1ncc(N2CCOCC2)s1)c1ccc(F)cc1O [Compound 15, 4-Fluoro-2-hydroxy-N-(5-morpholinothiazol-2-yl)benzamide] — lower, 42.25±0.19%
- O=C(Nc1ncc(N2CCOCC2)s1)c1ccc(Cl)cc1O [Compound 16, 4-Chloro-2-hydroxy-N-(5-morpholinothiazol-2-yl)benzamide] — lower, 21.02±4.56%
- O=C(Nc1ncc(N2CCOCC2)s1)c1ccc(Br)cc1O [Compound 17, 4-Bromo-2-hydroxy-N-(5-morpholinothiazol-2-yl)benzamide] — lower, 15.41±5.32%
- O=C(Nc1ncc(N2CCOCC2)s1)c1ccc(C(F)(F)F)cc1O [Compound 18, 2-Hydroxy-N-(5-morpholinothiazol-2-yl)-4-(trifluoromethyl)benzamide] — lower, 8.76±5.93%
- O=C(Nc1ncc(N2CCOCC2)s1)c1ccccc1O [Compound 19, 2-Hydroxy-N-(5-morpholinothiazol-2-yl)benzamide] — within error, 53.79±3.85%
- O=C(Nc1ncc(N2CCOCC2)s1)c1ccccc1C(F)(F)F [Compound 25, N-(5-Morpholinothiazol-2-yl)-2-(trifluoromethyl)benzamide] — lower, 22.05±1.85%
- O=C(Nc1ncc(N2CCOCC2)s1)c1ccccc1F [Compound 26, 2-Fluoro-N-(5-morpholinothiazol-2-yl)benzamide] — higher, 65.98±1.74%
- O=C(Nc1ncc(N2CCOCC2)s1)c1ccccc1[N+](=O)[O-] [Compound 27, N-(5-Morpholinothiazol-2-yl)-2-nitrobenzamide] — within error, 53.24±5.72%
- Cc1ccccc1C(=O)Nc1ncc(N2CCOCC2)s1 [Compound 28, 2-Methyl-N-(5-morpholinothiazol-2-yl)benzamide] — higher, 55.38±1.66%
- COc1ccccc1C(=O)Nc1ncc(N2CCOCC2)s1 [Compound 29, 2-Methoxy-N-(5-morpholinothiazol-2-yl)benzamide] — lower, 26.90±6.23%
- O=C(Nc1ncc(N2CCOCC2)s1)C1CC1 [Compound 39, N-(5-Morpholinothiazol-2-yl)cyclopropanecarboxamide] — higher, 63.76±1.31%
- O=C(Nc1ncc(N2CCOCC2)s1)C1CCC1 [Compound 40, N-(5-Morpholinothiazol-2-yl)cyclobutanecarboxamide] — higher, 66.21±3.74%
- O=C(Nc1ncc(N2CCOCC2)s1)C1CCCC1 [Compound 41, N-(5-Morpholinothiazol-2-yl)cyclopentanecarboxamide] — higher, 63.37±4.65%
- O=C(Nc1ncc(N2CCOCC2)s1)C1CCCCC1 [Compound 42, N-(5-Morpholinothiazol-2-yl)cyclohexanecarboxamide] — higher, 61.15±1.44%
- O=C(Nc1ncc(N2CCOCC2)s1)C1CCCCCC1 [Compound 43, N-(5-Morpholinothiazol-2-yl)cycloheptanecarboxamide] — within error, 51.10±1.59%
- CC(=O)Nc1ncc(N2CCOCC2)s1 [Compound 45, N-(5-Morpholinothiazol-2-yl)acetamide] — within error, 43.86±4.45%
- CCC(=O)Nc1ncc(N2CCOCC2)s1 [Compound 46, N-(5-Morpholinothiazol-2-yl)propionamide] — within error, 44.98±8.58%
- CCCC(=O)Nc1ncc(N2CCOCC2)s1 [Compound 47, N-(5-Morpholinothiazol-2-yl)butyramide] — higher, 61.71±2.51%
- CCCCCC(=O)Nc1ncc(N2CCOCC2)s1 [Compound 48, N-(5-Morpholinothiazol-2-yl)hexanamide] — higher, 61.32±5.39%
- CC(C)CC(=O)Nc1ncc(N2CCOCC2)s1 [Compound 49, 3-Methyl-N-(5-morpholinothiazol-2-yl)butanamide] — lower, 40.38±3.37%
- O=C(CCC(F)(F)F)Nc1ncc(N2CCOCC2)s1 [Compound 50, 4,4,4-Trifluoro-N-(5-morpholinothiazol-2-yl)butanamide] — higher, 61.35±5.44%
- O=C1CCCCC1C(=O)Nc1ncc(N2CCOCC2)s1 (stereo not drawn) [Compound 53, N-(5-Morpholinothiazol-2-yl)-2-oxocyclohexanecarboxamide] — within error, 44.94±4.00%
- CC(=O)CC(=O)Nc1ncc(N2CCOCC2)s1 [Compound 54, N-(5-Morpholinothiazol-2-yl)-3-oxobutanamide] — higher, 66.46±3.73%
- COC[C@H]1OC(=O)c2coc3c2[C@@]1(C)C1=C(C3=O)[C@@H]2CCC(=O)[C@@]2(C)C[C@H]1OC(C)=O [WORT, wortmannin, reference compound] — higher, 90.68±1.46%

Reference: PMC7161708 (Acta Pharmaceutica Sinica. B, 2019)
